Test results reported in the Kinase Knowledgebase extract (Sharma et al. 2016).

Target: PIK3CA (human) (UniProt P42336)
Test: Assessment of PIK3CA Kinase Activity

PIK3CA (human), sequence (P42336 whole entry, looked up): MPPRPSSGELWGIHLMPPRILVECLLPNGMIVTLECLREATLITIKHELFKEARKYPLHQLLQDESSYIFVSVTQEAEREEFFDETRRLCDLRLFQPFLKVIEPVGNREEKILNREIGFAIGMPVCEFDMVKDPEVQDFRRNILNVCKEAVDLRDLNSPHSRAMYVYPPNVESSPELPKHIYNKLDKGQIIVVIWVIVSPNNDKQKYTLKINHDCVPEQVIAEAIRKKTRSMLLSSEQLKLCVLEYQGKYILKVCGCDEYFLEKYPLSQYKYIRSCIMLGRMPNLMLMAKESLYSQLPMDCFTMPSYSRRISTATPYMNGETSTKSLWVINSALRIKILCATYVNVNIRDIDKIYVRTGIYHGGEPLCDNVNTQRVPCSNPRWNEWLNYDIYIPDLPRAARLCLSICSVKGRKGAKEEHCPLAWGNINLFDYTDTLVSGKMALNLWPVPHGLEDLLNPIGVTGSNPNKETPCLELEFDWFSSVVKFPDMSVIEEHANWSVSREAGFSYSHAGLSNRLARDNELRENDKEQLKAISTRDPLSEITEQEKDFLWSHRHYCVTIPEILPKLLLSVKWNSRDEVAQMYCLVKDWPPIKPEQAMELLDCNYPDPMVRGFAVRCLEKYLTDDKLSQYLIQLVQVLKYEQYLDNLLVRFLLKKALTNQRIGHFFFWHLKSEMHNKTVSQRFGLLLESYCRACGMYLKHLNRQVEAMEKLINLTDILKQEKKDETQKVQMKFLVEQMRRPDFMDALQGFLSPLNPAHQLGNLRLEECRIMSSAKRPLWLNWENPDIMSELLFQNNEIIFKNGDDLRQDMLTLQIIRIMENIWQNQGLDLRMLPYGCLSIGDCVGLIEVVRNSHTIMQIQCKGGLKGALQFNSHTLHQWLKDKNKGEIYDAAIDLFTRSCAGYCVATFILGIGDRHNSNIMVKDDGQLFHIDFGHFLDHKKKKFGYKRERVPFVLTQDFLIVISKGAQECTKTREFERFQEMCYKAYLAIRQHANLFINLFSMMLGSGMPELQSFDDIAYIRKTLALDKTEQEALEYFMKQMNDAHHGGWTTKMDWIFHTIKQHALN

| Structure (SMILES) | IC50 |
| --- | --- |
| Cc1nc(-c2cn3c(n2)-c2cc(-c4cc[nH]c(=O)c4)ccc2OCC3)n(C(C)C)n1 | < 1000 nM |
| COC[C@H](Nc1ccc2c(c1)OCCn1cc(-c3ncnn3CC(F)(F)F)nc1-2)C(N)=O | < 1000 nM |
| Cc1nc(-c2cn3c(n2)-c2cnc(N4CC(F)(F)C[C@H]4C(N)=O)cc2OCC3)n(C(C)C)n1 | < 1000 nM |
| NC(=O)[C@@H]1CCCN1c1cc2c(cn1)-c1nc(-c3ncnn3CC(F)(F)F)cn1CCO2 | < 1000 nM |
| CC(C)n1ncnc1-c1cn2c(n1)-c1cc(NC3CNC3)ncc1OCC2 | < 1000 nM |
| CC(C)n1nccc1-c1cn2c(n1)-c1ccc(C(N)=O)cc1OCC2 | < 1000 nM |
| CC(C)n1ncnc1-c1cn2c(n1)-c1ccc(C3CCN(CC(=O)N(C)C)CC3)cc1OCC2 | < 1000 nM |
| CC(C)n1ncnc1-c1cn2c(n1)-c1ccc(C3C(=O)NNC3=O)cc1OCC2 | < 1000 nM |
| CC[C@H](Oc1ccc2c(c1)OCCn1cc(-c3ncnn3CC(F)(F)F)nc1-2)C(N)=O | < 1000 nM |
| CC(C)n1ncnc1-c1cn2c(n1)-c1ccc(-c3cnn(CCO)c3)cc1OCC2 | < 1000 nM |
| O=C(Nc1cn[nH]c1)c1ccc2c(c1)-n1nc(-c3ncnn3CC(F)(F)F)cc1CCO2 | < 1000 nM |
| CC(C)n1ncnc1-c1cn2c(n1)-c1ccc(-c3ccc(Cl)cc3)cc1OCC2 | < 1000 nM |
| Cc1nc(-c2cn3c(n2)-c2ccc(-c4cnn(C5CN(CCO)C5)c4)cc2OCC3)n(C(C)C)n1 | < 1000 nM |
| CC(C)N(CCO)C(=O)c1cc2n(n1)-c1ccccc1OCC2 | < 1000 nM |
| CC(C)n1ncnc1-n1cc2c(n1)-c1ccc(-c3cnn(CCO)c3)cc1OCC2 | < 1000 nM |
| CCOC(=O)C(C)Cn1cc(-c2ccc3c(c2)OCCn2cc(-c4nc(C)nn4C(C)C)nc2-3)cn1 (configuration not stated) | < 1000 nM |
| CC(C)n1ncnc1-c1cn2c(n1)-c1cnc(N3CCC(O)CC3)cc1OCC2 | < 1000 nM |
| CC(C)n1ncnc1-c1cn2c(n1)-c1cnc(N3C[C@H](O)C[C@H]3C(N)=O)cc1OCC2 | < 1000 nM |
| CC(C)n1ncnc1-c1cn2c(n1)-c1ccc(C3CCN(CC(=O)NC(C)(C)C)CC3)cc1OCC2 | < 1000 nM |
| CC(C)n1ncnc1-c1cn2c(n1)-c1ccc(CC(N)=O)cc1OCC2 | < 1000 nM |
| CC[C@H](Oc1ccc2c(c1)OCCn1cc(-c3ncnn3C(C)C)nc1-2)C(N)=O | < 1000 nM |
| CC(C)n1ccnc1-c1cn2c(n1)-c1cnc(N3CCC[C@H]3C(N)=O)cc1OCC2 | < 1000 nM |
| CC(C)n1ccnc1-c1cn2c(n1)-c1cnccc1OCC2 | < 1000 nM |
| CC(C)n1nc(N)nc1-c1cn2c(n1)-c1ccc(-c3cncc(F)c3)cc1OCC2 | < 1000 nM |
| Cc1nc(-c2cn3c(n2)-c2cc(-c4ccc[nH]c4=O)ccc2OCC3)n(C(C)C)n1 | < 1000 nM |

| Structure (SMILES) | IC50 |
| --- | --- |
| CC(C)C(Oc1ccc2c(c1)OCCn1cc(-c3ncnn3CC(F)(F)F)nc1-2)C(N)=O (configuration not stated) | < 1000 nM |
| CC(C)n1nc(CO)nc1-c1cn2c(n1)-c1cnc(N(C)C)cc1OCC2 | < 1000 nM |
| OCc1nc(-c2cn3c(n2)-c2cnc(Cl)cc2OCC3)n(CC(F)(F)F)n1 | < 1000 nM |
| CC(C)n1ncnc1-c1cn2c(n1)-c1cc(N3CCN(C)CC3)ncc1OCC2 | < 1000 nM |
| CS(=O)(=O)CCN1CCC(CO)(c2ccc3c(c2)-c2nn(-c4ncnn4-c4ccc(F)cc4F)cc2CCO3)CC1 | < 1000 nM |
| CO[C@@H]1C[C@@H](C(N)=O)N(c2cc3c(cn2)-c2nc(-c4ncnn4C(C)C)cn2CCO3)C1 | < 1000 nM |
| Cc1nc(-c2cn3c(n2)-c2ccc(-c4cn(CC(C)(C)O)cn4)cc2OCC3)n(C(C)C)n1 | < 1000 nM |
| NC(=O)CN1CCC(c2ccc3c(c2)-c2nn(-c4ncnn4-c4ccc(F)cc4F)cc2CCO3)CC1 | < 1000 nM |
| Cc1nc(-c2cn3c(n2)-c2cnc(N4CCC[C@H]4C(N)=O)cc2OCC3)n(-c2cc(F)cc(F)c2)n1 | < 1000 nM |
| CC(C)n1ncnc1-c1cn2c(n1)-c1cnc(NCC(N)=O)cc1OCC2 | < 1000 nM |
| CC(C)n1ncnc1-c1cn2c(n1)-c1cnc(N3C[C@H](F)C[C@H]3C(N)=O)cc1OCC2 | < 1000 nM |
| CCc1ccccc1-c1cn2c(n1)-c1ccc(C(=O)OC)cc1OCC2 | < 1000 nM |
| CC(C)C(Oc1ccc2c(c1)OCCn1cc(-c3ncnn3C(C)C)nc1-2)C(N)=O (configuration not stated) | < 1000 nM |
| CC(C)n1ncnc1-c1cn2c(n1)-c1ccc(-c3cnn(C(C)(C)C(N)=O)c3)cc1OCC2 | < 1000 nM |
| CCCC(Oc1ccc2c(c1)OCCn1cc(-c3ncnn3C(C)C)nc1-2)C(N)=O (configuration not stated) | < 1000 nM |
| CC(C)n1ncnc1-c1cn2c(n1)-c1ccc(NCC3(N)COC3)cc1OCC2 | < 1000 nM |
| CC(C)n1ncnc1-c1cn2c(n1)-c1ccc(OC3CCC3)cc1OCC2 | < 1000 nM |
| COC(=O)C(C)Cn1cc(-c2ccc3c(c2)OCCn2cc(-c4nc(C)nn4C(C)C)nc2-3)cn1 (configuration not stated) | < 1000 nM |
| CC(C)n1ncnc1-c1cn2c(n1)-c1cnc(N3CC[C@@H](O)C3)cc1OCC2 | < 1000 nM |
| CC(C)n1ncnc1-c1cn2c(n1)-c1cnc(N3CCNC(=O)C3)cc1OCC2 | < 1000 nM |
| CC(C)n1ncnc1-c1cn2c(n1)-c1cnc(N3C4CCC3C(=O)NC4)cc1OCC2 (configuration not stated) | < 1000 nM |
| CC(C)n1ncnc1-c1cn2c(n1)-c1cc(-c3ccc[nH]c3=O)ccc1OCC2 | < 1000 nM |
| CC(C)n1ncnc1-c1cn2c(n1)-c1ccc(C3CCN(CCS(=O)(=O)N(C)C)CC3)cc1OCC2 | < 1000 nM |
| Cc1nc(-c2cn3c(n2)-c2cnc(N4CCCC4CN4CCCCC4)cc2OCC3)n(CC(F)(F)F)n1 (configuration not stated) | < 1000 nM |
| Nc1cc2c(cn1)-c1nc(-c3ncnn3CC(F)(F)F)cn1CCO2 | < 1000 nM |

| Structure (SMILES) | IC50 |
| --- | --- |
| NC(=O)CN1CCC(c2ccc3c(c2)-n2nc(-c4ncnn4CC(F)(F)F)cc2CCO3)CC1 | < 1000 nM |
| CC(C)n1ncnc1-c1cn2c(n1)-c1ccc(C3CCOCC3)cc1OCC2 | < 1000 nM |
| CC(C)n1ncnc1-c1cn2c(n1)-c1cnccc1OCC2 | < 1000 nM |
| CC(C)n1ncnc1-c1cc2n(n1)-c1cc(C3CN(C(=O)CO)C3)ccc1OCC2 | < 1000 nM |
| CCc1ccccc1-c1ccc2c(c1)OCCn1cc(-c3ncnn3C(C)C)nc1-2 | < 1000 nM |
| CC(C)n1nc(C2CC2)nc1-c1cn2c(n1)-c1ccc(Br)cc1OCC2 | < 1000 nM |
| CC(C)n1cnnc1-n1cc2c(n1)-c1ccccc1OCC2 | < 1000 nM |
| Cc1nc(-c2cn3c(n2)-c2ccc(CC(N)=O)cc2OCC3)n(C(C)C)n1 | < 1000 nM |
| CC(C)n1nc(CC(N)=O)nc1-c1cn2c(n1)-c1ccc(Br)cc1OCC2 | < 1000 nM |
| Cc1nc(-c2cn3c(n2)-c2ccc(N4CC[C@H]4C(N)=O)cc2OCC3)n(CC(F)(F)F)n1 | < 1000 nM |
| CC(C)n1nccc1-c1cn2c(n1)-c1cc(C(N)=O)ccc1OCC2 | < 1000 nM |
| CC(C)(CO)NC(=O)c1ccc2c(c1)-c1nc(-c3ncnn3-c3ccccc3Cl)cn1CCO2 | < 1000 nM |
| Cc1ncc(-c2ccc3c(c2)OCCn2cc(-c4ncnn4C(C)C)nc2-3)n1CCO | < 1000 nM |
| Cc1nc(-c2cn3c(n2)-c2ccc(CCC(N)=O)cc2OCC3)n(C(C)C)n1 | < 1000 nM |
| CC(C)n1ncnc1-c1cn2c(n1)-c1ccc(C3CN(S(=O)(=O)CCN4CC(F)C4)C3)cc1OCC2 | < 1000 nM |
| NC(=O)[C@@H]1CCCCN1c1ccc2c(c1)OCCn1cc(-c3ncnn3CC(F)(F)F)nc1-2 | < 1000 nM |
| CNc1ccc2c(n1)OCCn1cc(-c3ncnn3C(C)C)nc1-2 | < 1000 nM |
| CC(C)n1ncnc1-c1cn2c(n1)-c1ccc(C3CCN(CC(C)(C)O)CC3)cc1OCC2 | < 1000 nM |
| COCc1nc(-c2cn3c(n2)-c2ccc(C4CCN(CC(N)=O)CC4)cc2OCC3)n(C(C)C)n1 | < 1000 nM |
| Cc1n[nH]c(-c2cn3c(n2)-c2ccc(-c4cnn(CCO)c4)cc2OCC3)n1 | < 1000 nM |
| CC(C)n1ncnc1-c1cn2c(n1)-c1cnc(N3C[C@H](C#N)C[C@H]3C(N)=O)cc1OCC2 | < 1000 nM |
| Cc1nc(-c2cn3c(n2)-c2cnc(N)cc2OCC3)n(C(C)C)n1 | < 1000 nM |
| CC(C)n1ncnc1-c1cc2n(n1)-c1cc(C(=O)N3CCS(=O)(=O)CC3)ccc1OCC2 | < 1000 nM |
| CC(C)n1ncnc1-c1cn2c(n1)-c1cnc(N3CC=C[C@H]3C(N)=O)cc1OCC2 | < 1000 nM |
| CC(C)n1ncnc1-c1cn2c(n1)-c1ccc(C3CCN(C(C)(C)C(N)=O)CC3)cc1OCC2 | < 1000 nM |

| Structure (SMILES) | IC50 |
| --- | --- |
| CC(C)n1ncnc1-c1cn2c(n1)-c1ccc(CC(=O)NO)cc1OCC2 | < 1000 nM |
| NC(=O)[C@@H]1CCCN1c1cc2c(cn1)-c1nc(-c3ncnn3C3CCCCC3)cn1CCO2 | < 1000 nM |
| CC(C)n1ccnc1-c1cn2c(n1)-c1ccc(-c3cnn(CC(C)(C)O)c3)cc1OCC2 | < 1000 nM |
| NC(=O)[C@@H]1CNCCN1c1ccc2c(c1)OCCn1cc(-c3ncnn3CC(F)(F)F)nc1-2 | < 1000 nM |
| CC(C)n1ncnc1-n1cc2c(n1)-c1cc(-c3cn[nH]c3)ccc1OCC2 | < 1000 nM |
| Cc1nc(-c2cn3c(n2)-c2ccc(-c4cn(CCO)cn4)cc2OCC3)n(C(C)C)n1 | < 1000 nM |
| CCN(CC)CCn1cc(-c2ccc3c(c2)OCCn2cc(-c4ncnn4C(C)C)nc2-3)cn1 | < 1000 nM |
| CC(C)n1ncnc1-c1cn2c(n1)-c1ccc(-c3cnc[nH]3)cc1OCC2 | < 1000 nM |
| CC(C)n1ncnc1-c1cn2c(n1)-c1ccc([C@H]3CCNC[C@@H]3O)cc1OCC2 | < 1000 nM |
| CC(C)n1ncnc1-c1cn2c(n1)-c1cc(-c3ccccc3)ccc1OCC2 | < 1000 nM |
| CC(C)n1ncnc1-c1cn2c(n1)-c1ccc(Br)cc1OCC2 | < 1000 nM |
| Cc1nc(-c2cn3c(n2)-c2ccc(-c4cnc(N)nc4)cc2OCC3)n(C(C)C)n1 | < 1000 nM |
| CC(C)n1ncnc1-c1cn2c(n1)-c1cnc(N3CC[C@H](C#N)C3)cc1OCC2 | < 1000 nM |
| CC(C)n1ncnc1-c1cn2c(n1)-c1cc(-c3cn[nH]c3)ccc1OCC2 | < 1000 nM |
| Nc1nc(-c2cn3c(n2)-c2cc(-c4ccccc4)ccc2OCC3)n(-c2ccccc2Cl)n1 | < 1000 nM |
| CN(C)c1cc2c(cn1)-c1nc(-c3ncnn3-c3ccccc3Cl)cn1CCO2 | < 1000 nM |
| COC(=O)c1ccc2c(c1)OCCn1cc(-c3ncnn3C(C)C)nc1-2 | < 1000 nM |
| Cc1nc(-c2cn3c(n2)-c2cnc(N4CC[C@@H](O)[C@H]4C(N)=O)cc2OCC3)n(C(C)C)n1 | < 1000 nM |
| CC(C)n1ncnc1-c1cn2c(n1)-c1cc(-c3ccc(=O)[nH]c3)ncc1OCC2 | < 1000 nM |
| CC(C)n1ncnc1-c1cn2c(n1)-c1cnc(N3CC[C@H](C)[C@H]3C(N)=O)cc1OCC2 | < 1000 nM |
| N#Cc1ccc2c(c1)-c1nc(-c3nc(N)nn3CC(F)(F)F)cn1CCO2 | < 1000 nM |
| Cc1ccc2c(c1)-c1nc(-c3nc(C)nn3C(C)C)cn1CCO2 | < 1000 nM |
